Test results as given in publication PMC9025901, “New Genetic Bomb Trigger: Design, Synthesis, Molecular Dynamics Simulation, and Biological Evaluation of Novel BIBR1532-Related Analogs Targeting Telomerase against Non-Small Cell Lung Cancer” (Pharmaceuticals, 2022).

How the values were obtained:
[1] = target: T1, telomerase inside living cancer cells A549 (Homo sapiens, UniProt O14746); assay: Living-cell TRAP assay, A549; assay type: cell-based; details: percent of control cells, 10 µM, 48 h
T1 construct: host or cells: A549
T1 sequence (O14746 whole entry): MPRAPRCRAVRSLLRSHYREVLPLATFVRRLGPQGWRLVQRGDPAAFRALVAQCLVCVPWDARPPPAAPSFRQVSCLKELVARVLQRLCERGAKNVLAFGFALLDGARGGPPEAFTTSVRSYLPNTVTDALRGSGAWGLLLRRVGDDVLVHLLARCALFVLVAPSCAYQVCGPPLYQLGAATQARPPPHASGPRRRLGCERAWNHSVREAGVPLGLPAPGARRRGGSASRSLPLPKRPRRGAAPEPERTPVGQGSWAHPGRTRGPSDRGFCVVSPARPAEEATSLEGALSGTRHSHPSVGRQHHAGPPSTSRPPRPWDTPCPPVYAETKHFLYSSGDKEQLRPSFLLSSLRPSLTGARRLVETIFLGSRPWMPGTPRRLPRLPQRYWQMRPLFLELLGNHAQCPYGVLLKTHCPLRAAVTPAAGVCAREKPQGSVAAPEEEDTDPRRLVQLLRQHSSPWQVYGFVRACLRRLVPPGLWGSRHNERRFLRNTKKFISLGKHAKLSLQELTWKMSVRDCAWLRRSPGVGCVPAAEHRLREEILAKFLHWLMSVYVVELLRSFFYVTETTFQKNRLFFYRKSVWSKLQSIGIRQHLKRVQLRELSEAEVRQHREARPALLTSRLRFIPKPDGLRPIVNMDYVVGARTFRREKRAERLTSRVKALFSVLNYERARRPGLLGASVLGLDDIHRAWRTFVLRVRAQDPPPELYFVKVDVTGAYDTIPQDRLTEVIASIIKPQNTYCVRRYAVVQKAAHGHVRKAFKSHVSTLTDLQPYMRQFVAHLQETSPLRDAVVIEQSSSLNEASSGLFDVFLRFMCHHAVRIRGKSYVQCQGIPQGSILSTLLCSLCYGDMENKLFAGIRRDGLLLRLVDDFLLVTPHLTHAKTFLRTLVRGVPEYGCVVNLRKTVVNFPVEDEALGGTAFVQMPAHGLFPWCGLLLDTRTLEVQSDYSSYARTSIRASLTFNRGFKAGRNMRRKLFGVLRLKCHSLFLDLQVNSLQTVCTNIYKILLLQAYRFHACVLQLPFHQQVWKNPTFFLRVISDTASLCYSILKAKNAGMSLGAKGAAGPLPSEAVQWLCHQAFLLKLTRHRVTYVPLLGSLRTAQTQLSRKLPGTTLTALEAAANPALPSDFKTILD
T1 sequence (O60832 whole entry partner): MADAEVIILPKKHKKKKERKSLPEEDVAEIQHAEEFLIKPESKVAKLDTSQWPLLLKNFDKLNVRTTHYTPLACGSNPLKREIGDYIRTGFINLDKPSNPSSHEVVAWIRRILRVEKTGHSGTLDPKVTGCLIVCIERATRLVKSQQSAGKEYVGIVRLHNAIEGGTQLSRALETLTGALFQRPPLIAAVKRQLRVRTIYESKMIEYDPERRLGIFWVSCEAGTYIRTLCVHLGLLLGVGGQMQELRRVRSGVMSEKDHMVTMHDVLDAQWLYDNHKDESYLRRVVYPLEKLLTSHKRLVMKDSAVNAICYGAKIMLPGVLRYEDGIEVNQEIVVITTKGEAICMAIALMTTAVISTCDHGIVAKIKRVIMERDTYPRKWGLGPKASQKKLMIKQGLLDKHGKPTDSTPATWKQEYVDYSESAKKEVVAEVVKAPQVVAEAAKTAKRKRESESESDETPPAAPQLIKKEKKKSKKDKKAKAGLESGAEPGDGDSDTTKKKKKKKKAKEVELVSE
T1 sequence (Q9NX24 whole entry partner): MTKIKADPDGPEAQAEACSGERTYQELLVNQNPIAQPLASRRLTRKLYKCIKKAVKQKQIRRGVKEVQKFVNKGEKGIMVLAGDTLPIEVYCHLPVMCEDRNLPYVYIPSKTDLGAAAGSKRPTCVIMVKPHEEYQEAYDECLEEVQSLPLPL
T1 sequence (Q9NPE3 whole entry partner): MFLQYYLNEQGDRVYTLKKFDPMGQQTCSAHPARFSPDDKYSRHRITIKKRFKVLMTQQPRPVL
T1 sequence (Q9NY12 whole entry partner): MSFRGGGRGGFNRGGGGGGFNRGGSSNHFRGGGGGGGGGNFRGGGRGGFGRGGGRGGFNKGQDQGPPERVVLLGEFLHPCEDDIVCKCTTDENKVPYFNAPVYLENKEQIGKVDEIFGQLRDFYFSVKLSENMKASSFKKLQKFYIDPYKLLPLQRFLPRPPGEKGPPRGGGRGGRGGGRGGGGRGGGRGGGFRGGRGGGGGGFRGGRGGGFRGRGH
T1 sequence (Q9BUR4 whole entry partner): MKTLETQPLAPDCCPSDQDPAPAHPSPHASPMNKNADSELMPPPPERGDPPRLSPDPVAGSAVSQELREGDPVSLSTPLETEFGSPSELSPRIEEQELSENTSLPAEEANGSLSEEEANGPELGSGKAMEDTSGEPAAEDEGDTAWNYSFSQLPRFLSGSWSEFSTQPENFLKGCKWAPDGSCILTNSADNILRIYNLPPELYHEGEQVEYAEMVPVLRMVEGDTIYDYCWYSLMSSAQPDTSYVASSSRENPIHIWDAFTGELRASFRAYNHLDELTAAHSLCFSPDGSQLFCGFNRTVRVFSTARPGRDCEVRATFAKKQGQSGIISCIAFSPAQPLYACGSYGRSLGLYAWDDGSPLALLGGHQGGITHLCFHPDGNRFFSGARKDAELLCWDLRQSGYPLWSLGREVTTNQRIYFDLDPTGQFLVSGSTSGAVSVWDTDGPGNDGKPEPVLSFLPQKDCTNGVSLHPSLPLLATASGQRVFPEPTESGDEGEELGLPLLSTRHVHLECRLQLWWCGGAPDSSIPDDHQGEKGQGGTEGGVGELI
Method: (§1) The Telomeric Repeat Amplification Protocol (TRAP) [61] was used to evaluate the activity of telomerase, with some changes that we have previously described [62, 63]. A549 cells (human epithelial cell lung carcinoma, ATCC, Manassas, VA) were lysed in (10 mM) Tris-HCl, pH 7.5, (1 mM) EGTA, (1 mM) MgCl2, (5 mM) 2-mercaptoethanol, (0.1 mM) PMSF, (0.5%) CHAPS, and (10%) glycerol (Sigma-Aldrich, St. Louis, MO, USA) and centrifugation. The supernatants were kept at -80 °C. The BCA-1 Protein Assay Kit was used to assess the protein concentration in cell extracts (Sigma-Aldrich, St. Louis, MO, USA). […] To inactivate telomerase, the cells were elongated for 30 min at 37 °C and 10 min at 96 °C. Copy CX-primer was added to the elongation mixture along with 0.1 μL ([NT]) and 2.5 units Taq-polymerase, followed by the following PCR: 94 °C for 5 min; 30 cycles of 94 °C for 30 s, 50 °C for 30 s, and 72 °C for 40 s, and 72 °C for 5 min. TBE buffer and (12%) nondenaturing PAAG electrophoresis were used to visualize the PCR product. 10 μL of each sample was placed in each well of gel comb. The gels were stained with the SYBR Green I (Invitrogen, Grand Island, NY, USA), then photographed under the UV light in ChemiDocTM XRS imaging system and analyzed with GelAnalyzer 2010.

[2] = target: T2, telomerase inside living cancer cells HCC44 (Homo sapiens, UniProt O14746); assay: Living-cell TRAP assay, HCC44; assay type: cell-based; details: percent of control cells, 10 µM, 48 h
T2 construct: host or cells: HCC44
T2 sequence (O14746 whole entry): as the sequence (O14746 whole entry) above
T2 sequence (O60832 whole entry partner): as the sequence (O60832 whole entry partner) above
T2 sequence (Q9NX24 whole entry partner): as the sequence (Q9NX24 whole entry partner) above
T2 sequence (Q9NPE3 whole entry partner): as the sequence (Q9NPE3 whole entry partner) above
T2 sequence (Q9NY12 whole entry partner): as the sequence (Q9NY12 whole entry partner) above
T2 sequence (Q9BUR4 whole entry partner): as the sequence (Q9BUR4 whole entry partner) above
Method: as §1

[3] = target: T3, telomerase inside living cancer cells NCI-H23 (Homo sapiens, UniProt O14746); assay: Living-cell TRAP assay, NCI-H23; assay type: cell-based; details: percent of control cells, 10 µM, 48 h
T3 construct: host or cells: NCI-H23
T3 sequence (O14746 whole entry): as the sequence (O14746 whole entry) above
T3 sequence (O60832 whole entry partner): as the sequence (O60832 whole entry partner) above
T3 sequence (Q9NX24 whole entry partner): as the sequence (Q9NX24 whole entry partner) above
T3 sequence (Q9NPE3 whole entry partner): as the sequence (Q9NPE3 whole entry partner) above
T3 sequence (Q9NY12 whole entry partner): as the sequence (Q9NY12 whole entry partner) above
T3 sequence (Q9BUR4 whole entry partner): as the sequence (Q9BUR4 whole entry partner) above
Method: as §1

CCRF-CEM = assay: NCI-60 in vitro anticancer screening (SRB); details: Leukemia, 10 µM, 48 h
Method: (§2) The cancer screening panel’s human tumor 60 cell lines were cultured in the RPMI 1640 medium with (5%) fetal bovine serum and (2 mM) L-glutamine. For a screening experiment, cells were injected onto 96-well microtiter plates (100 µL), with plating densities varying from 5 to 40 × 10^3 cells per well, depending on different cell lines’ doubling times. Before introducing experimental drugs, the microtiter plates were incubated overnight at 37 °C, 95% air, 5% CO2, and 100% relative humidity after cell injection. TCA was employed to keep each cell line in place overnight, resembling a computation of the cell population for every cell line at the time of the addition of the drug. The experimental drugs were chilled after solubilization in DMSO at 400 times the final maximum test concentration. At the moment of the addition of the drug, the aliquot of the frozen concentrate was thawed and diluted to twice the required final maximum concentration with the complete medium containing (50 µg/mL) gentamicin. The required final concentration of the drug (10 µM) was reached by adding 100 µL aliquots of these definite dilutions of the drug to suitable microtiter wells previously holding a medium of 100 µL. […] The bound dye was then solubilized with a (10 mM) trizma base, and absorbance was calculated at 515 nm on an automatic reader. […]

K-562 = assay: NCI-60 in vitro anticancer screening (SRB); details: K-562, Leukemia; 10 µM, 48 h
Method: (§3) The cancer screening panel’s human tumor 60 cell lines were cultured in the RPMI 1640 medium with (5%) fetal bovine serum and (2 mM) L-glutamine. For a screening experiment, cells were injected onto 96-well microtiter plates (100 µL), with plating densities varying from 5 to 40 × 10^3 cells per well, depending on different cell lines’ doubling times. Before introducing experimental drugs, the microtiter plates were incubated overnight at 37 °C, 95% air, 5% CO2, and 100% relative humidity after cell injection. TCA was employed to keep each cell line in place overnight, resembling a computation of the cell population for every cell line at the time of the addition of the drug. The experimental drugs were chilled after solubilization in DMSO at 400 times the final maximum test concentration. At the moment of the addition of the drug, the aliquot of the frozen concentrate was thawed and diluted to twice the required final maximum concentration with the complete medium containing (50 µg/mL) gentamicin. […] The bound dye was then solubilized with a (10 mM) trizma base, and absorbance was calculated at 515 nm on an automatic reader. […] The % growth of treated cells was established using seven absorbance measurements and compared to untreated control cells [57].

A549/ATCC = assay: NCI-60 in vitro anticancer screening (SRB); details: Lung cancer (NSCLC), 10 µM, 48 h
Method: as §3

NCI-H23 = assay: NCI-60 in vitro anticancer screening (SRB); details: NCI-H23, Lung cancer (NSCLC); 10 µM, 48 h
Method: as §3

NCI-H522 = assay: NCI-60 in vitro anticancer screening (SRB); details: NCI-H522, Lung cancer (NSCLC); 10 µM, 48 h
Method: as §3

HT29 = assay: NCI-60 in vitro anticancer screening (SRB); details: HT29, Colon cancer; 10 µM, 48 h
Method: as §3

KM12 = assay: NCI-60 in vitro anticancer screening (SRB); details: KM12, Colon cancer; 10 µM, 48 h
Method: as §3

SW-620 = assay: NCI-60 in vitro anticancer screening (SRB); details: SW-620, Colon cancer; 10 µM, 48 h
Method: as §3

SF-268 = assay: NCI-60 in vitro anticancer screening (SRB); details: SF-268, CNS cancer; 10 µM, 48 h
Method: as §3

SNB-19 = assay: NCI-60 in vitro anticancer screening (SRB); details: SNB-19, CNS cancer; 10 µM, 48 h
Method: as §3

SNB-75 = assay: NCI-60 in vitro anticancer screening (SRB); details: SNB-75, CNS cancer; 10 µM, 48 h
Method: as §3

SK-MEL-2 = assay: NCI-60 in vitro anticancer screening (SRB); details: SK-MEL-2, Melanoma; 10 µM, 48 h
Method: as §2

SK-MEL-28 = assay: NCI-60 in vitro anticancer screening (SRB); details: SK-MEL-28, Melanoma; 10 µM, 48 h
Method: as §2

SK-MEL-5 = assay: NCI-60 in vitro anticancer screening (SRB); details: SK-MEL-5, Melanoma; 10 µM, 48 h
Method: as §2

UACC-62 = assay: NCI-60 in vitro anticancer screening (SRB); details: UACC-62, Melanoma; 10 µM, 48 h
Method: as §3

OVCAR-4 = assay: NCI-60 in vitro anticancer screening (SRB); details: OVCAR-4, Ovarian cancer; 10 µM, 48 h
Method: as §3

OVCAR-5 = assay: NCI-60 in vitro anticancer screening (SRB); details: OVCAR-5, Ovarian cancer; 10 µM, 48 h
Method: as §3

OVCAR-8 = assay: NCI-60 in vitro anticancer screening (SRB); details: OVCAR-8, Ovarian cancer; 10 µM, 48 h
Method: as §3

NCI/ADR-RES = assay: NCI-60 in vitro anticancer screening (SRB); details: Ovarian cancer, 10 µM, 48 h
Method: as §3

786-0 = assay: NCI-60 in vitro anticancer screening (SRB); details: 786-0, Renal cancer; 10 µM, 48 h
Method: as §3

CAKI-1 = assay: NCI-60 in vitro anticancer screening (SRB); details: CAKI-1, Renal cancer; 10 µM, 48 h
Method: as §2

RXF 393 = assay: NCI-60 in vitro anticancer screening (SRB); details: RXF 393, Renal cancer; 10 µM, 48 h
Method: as §2

SN12C = assay: NCI-60 in vitro anticancer screening (SRB); details: Renal cancer, 10 µM, 48 h
Method: as §3

TK-10 = assay: NCI-60 in vitro anticancer screening (SRB); details: TK-10, Renal cancer; 10 µM, 48 h
Method: as §3

UO-31 = assay: NCI-60 in vitro anticancer screening (SRB); details: UO-31, Renal cancer; 10 µM, 48 h
Method: as §3

PC-3 = assay: NCI-60 in vitro anticancer screening (SRB); details: PC-3, Prostate cancer; 10 µM, 48 h
Method: as §3

DU-145 = assay: NCI-60 in vitro anticancer screening (SRB); details: DU-145, Prostate cancer; 10 µM, 48 h
Method: as §3

MDA-MB-231/ATCC = assay: NCI-60 in vitro anticancer screening (SRB); details: Breast cancer, 10 µM, 48 h
Method: as §2

HS 578T = assay: NCI-60 in vitro anticancer screening (SRB); details: Breast cancer, 10 µM, 48 h
Method: as §2

BT-549 = assay: NCI-60 in vitro anticancer screening (SRB); details: BT-549, Breast cancer; 10 µM, 48 h
Method: as §2

T-47D = assay: NCI-60 in vitro anticancer screening (SRB); details: Breast cancer, 10 µM, 48 h
Method: as §2

**Q.** For `N#C/C(=C\c1ccc2ccccc2c1)C(=O)Nc1sc2c(c1C#N)CCCC2` [Compound 36b, (2E)-2-Cyano-N-(3-cyano-4,5,6,7-tetrahydro-1-benzothiophen-2-yl)-3-(naphthalen-2-yl)prop-2-enamide], which “% Telomerase Activity in Cancer Cells” value [1] is on record?
**A.** Its value is 18.1 ± 5.4%.

**Q.** What about the “% Telomerase Activity in Cancer Cells” value [2] of the same molecule?
**A.** Its value is 54.4 ± 4.4%.

**Q.** What about the “% Telomerase Activity in Cancer Cells” value [3] of the same molecule?
**A.** Its value is 25.1 ± 3.2%.

**Q.** What about the “Growth Percent” value (CCRF-CEM) of the same molecule?
**A.** Its value is 104.69%.

**Q.** What about the “Growth Percent” value (K-562) of the same molecule?
**A.** Its value is 99.98%.

**Q.** What about the “Growth Percent” value (A549/ATCC) of the same molecule?
**A.** The value was 100.18%.

**Q.** What about the “Growth Percent” value (NCI-H23) of the same molecule?
**A.** Its value is 94.56%.

**Q.** And the “Growth Percent” value (NCI-H522)?
**A.** The value was 94.31%.

**Q.** And the “Growth Percent” value (HT29)?
**A.** Its value is 112.60%.

**Q.** And the “Growth Percent” value (KM12)?
**A.** The value was 101.43%.

**Q.** What about the “Growth Percent” value (SW-620) of the same molecule?
**A.** Its value is 103.69%.

**Q.** And the “Growth Percent” value (SF-268)?
**A.** The value was 104.45%.

**Q.** And the “Growth Percent” value (SNB-19)?
**A.** Its value is 100.30%.

**Q.** What about the “Growth Percent” value (SNB-75) of the same molecule?
**A.** Its value is 101.09%.

**Q.** And the “Growth Percent” value (SK-MEL-2)?
**A.** The value was 100.31%.

**Q.** What about the “Growth Percent” value (SK-MEL-28) of the same molecule?
**A.** The value was 102.31%.

**Q.** What about the “Growth Percent” value (SK-MEL-5) of the same molecule?
**A.** The value was 97.65%.

**Q.** And the “Growth Percent” value (UACC-62)?
**A.** The value was 91.73%.

**Q.** What about the “Growth Percent” value (OVCAR-4) of the same molecule?
**A.** Its value is 100.16%.

**Q.** And the “Growth Percent” value (OVCAR-5)?
**A.** The value was 104.98%.

**Q.** And the “Growth Percent” value (OVCAR-8)?
**A.** The value was 102.91%.

**Q.** What about the “Growth Percent” value (NCI/ADR-RES) of the same molecule?
**A.** Its value is 99.44%.

**Q.** And the “Growth Percent” value (786-0)?
**A.** The value was 101.2%.

**Q.** What about the “Growth Percent” value (CAKI-1) of the same molecule?
**A.** The value was 94.28%.

**Q.** And the “Growth Percent” value (RXF 393)?
**A.** The value was 111.16%.

**Q.** What about the “Growth Percent” value (SN12C) of the same molecule?
**A.** The value was 100.72%.

**Q.** And the “Growth Percent” value (TK-10)?
**A.** The value was 113.35%.

**Q.** And the “Growth Percent” value (UO-31)?
**A.** The value was 81.95%.

**Q.** And the “Growth Percent” value (PC-3)?
**A.** The value was 104.77%.

**Q.** And the “Growth Percent” value (DU-145)?
**A.** Its value is 99.89%.

**Q.** And the “Growth Percent” value (MDA-MB-231/ATCC)?
**A.** The value was 92.15%.

**Q.** What about the “Growth Percent” value (HS 578T) of the same molecule?
**A.** The value was 103.54%.

**Q.** And the “Growth Percent” value (BT-549)?
**A.** The value was 107.71%.

**Q.** And the “Growth Percent” value (T-47D)?
**A.** The value was 97.26%.
